Reference: patent US6271234A, “1,4-disubstituted piperazines” (Recordati S.A., Chemical and Pharmaceutical Company, priority 1997, dated 2001)

What was measured:
[1] = target: T1, human 5-HT1A -serotoninergic receptor (Homo sapiens, UniProt P08908); test: Radioreceptor binding to recombinant 5-HT1A receptors ([3H]8-OH-DPAT, HeLa cell membranes); details: [3H]8-OH-DPAT 0.2-1 nM, 30 min at 30° C., read-out: Binding affinity for the 5-HT1A receptor, Ki
T1 construct: expressed in transfected cells; host or cells: HeLa (human cell line), stably transfected; cell membranes
T1 sequence (P08908 1-422): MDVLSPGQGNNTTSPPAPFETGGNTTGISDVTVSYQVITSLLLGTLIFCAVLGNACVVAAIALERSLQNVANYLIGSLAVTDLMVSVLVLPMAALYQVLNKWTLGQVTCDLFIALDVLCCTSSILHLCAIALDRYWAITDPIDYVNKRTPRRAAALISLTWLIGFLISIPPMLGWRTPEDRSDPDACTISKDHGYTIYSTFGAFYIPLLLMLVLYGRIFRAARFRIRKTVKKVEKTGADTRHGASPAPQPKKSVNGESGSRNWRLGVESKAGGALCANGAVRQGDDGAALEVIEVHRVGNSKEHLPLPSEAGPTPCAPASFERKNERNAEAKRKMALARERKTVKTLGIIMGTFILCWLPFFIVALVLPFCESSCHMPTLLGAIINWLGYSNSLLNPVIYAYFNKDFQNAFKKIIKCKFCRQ
Protocol: HeLa cells were grown as monolayers in Dulbecco's modified Eagle's medium (DMEM), supplemented with 10% fetal calf serum and gentamicin ([…]), 5% CO2 at 37° C. Cells were detached from the growth flash at 95% confluence by a cell scraper and were lysed in ice-cold 5 mM Tris and 5 mM EDTA buffer (pH 7.4). Homogenates were centrifuged at 40000×g×20 min and pellets were resuspended in a small volume of ice-cold 5 mM Tris 5 and 5 mM EDTA buffer (pH 7.4) and immediately frozen and stored at -70° C. until use. On the day of experiment, cell membranes were resuspended in binding buffer: 50 mM Tris HCl (pH 7.4), 2.5 mM MgCl2, […] (Fargin et al., Nature 335, 358-360, 1988). Membranes were incubated in a final volume of 1 ml for 30 min at 30° C. with 0.2-1 nM [^3 H]8-OH-DPAT, in absence or presence of competing drugs; non-specific binding was determined in the presence of […]. The incubation was stopped by addition of ice-cold Tris-HCl buffer and rapid filtration through 0.2% polyethyleneimine pretreated Whatman GF/B or Schleicher & Schuell GF52 filters.

[2] = tested on: rhythmic bladder voiding contractions; test: Effects on volume-induced rhythmic bladder voiding contractions in anaesthetized rats; assay type: in vivo, Female Sprague Dawley rats; details: for Bladder Quiescence (disappearance time of contractions): mean ± S.E.
Protocol: The animals were housed with free access to food and water and were maintained on a forced 12 h alternating light-dark cycle at 22-24° C. for at least one week, except during the experiment. […] The catheter was tied in place with a ligature around the external urethral orifice and was connected with conventional pressure transducers (Statham P23 ID/P23 XL). […] The bladder was then filled via the recording catheter by incremental volumes of warm (37° C.) saline until reflex bladder voiding contractions occurred (usually 0.8-1.5 ml).
After cessation of the effect of drug injection, the height of the peaks was compared with that previously recorded after the intravenous administration of vehicle alone.

[3] = tested on: rhythmic bladder voiding contractions; details: urethane-anesthetized rats; background statement; cited from earlier work
[4] = i.v., urethane-anesthetized rats

Structure (SMILES): N#Cc1ccccc1N1CCN(CCN(C(=O)C2CCCCC2)c2ccccn2)CC1 [Ex. 4, 1-[N-cyclohexylcarbonyl-N-(2-pyridyl)-2-aminoethyl]-4-(2-cyanophenyl) piperazine]
- Ki [1]: 310 pM

Structure (SMILES): O=C(C1CCCCC1)N(CCN1CCN(Cc2cc(Cl)ccc2Cl)CC1)c1ccccn1 [Ex. 14, 1-[N-cyclohexylcarbonyl-N-(2-pyridyl)-2-aminoethyl]-4-(2,5-dichlorobenzyl)piperazine]
- Bladder Quiescence (disappearance time of contractions) ([2]; 30 μg/kg i.v.): 2.80 ± 1.31 min
- Bladder Quiescence (disappearance time of contractions) ([2]; 100 μg/kg i.v.): 10.12 ± 1.98 min
- Bladder Quiescence (disappearance time of contractions) ([2]; 300 μg/kg i.v.): 21.52 ± 4.66 min
- Ki [1]: 120 pM

Structure (SMILES): COc1cc(NS(C)(=O)=O)ccc1N1CCN(CCN(C(=O)C2CCCCC2)c2ccccn2)CC1 [Ex. 8, 1-[N-cyclohexylcarbonyl-N-(2-pyridyl)-2-aminoethyl]-4-(4-methanesulfonylamino-2-methoxyphenyl)piperazine]
- Bladder Quiescence (disappearance time of contractions) ([2]; 100 μg/kg i.v.): 2.03 ± 0.44 min
- Bladder Quiescence (disappearance time of contractions) ([2]; 1000 μg/kg i.v.): 7.20 ± 1.07 min
- Bladder Quiescence (disappearance time of contractions) ([2]; 3000 μg/kg i.v.): 14.20 ± 2.57 min

Structure (SMILES): O=C(C1CCCCC1)N(CCN1CCN(c2ccccc2OCC(F)(F)F)CC1)c1ccccn1 [Ex. 2, 1-[N-cyclohexylcarbonyl-N-(2-pyridyl)-2-aminoethyl]-4-[2-(2,2,2-trifluoroethoxy)phenyl]piperazine]
- Bladder Quiescence (disappearance time of contractions) ([2]; 30 μg/kg i.v.): 3.00 ± 0.91 min
- Bladder Quiescence (disappearance time of contractions) ([2]; 100 μg/kg i.v.): 8.70 ± 2.88 min
- Bladder Quiescence (disappearance time of contractions) ([2]; 1000 μg/kg i.v.): 27.28 ± 8.70 min
- Ki [1]: 890 pM

Structure (SMILES): O=C(C1CCCCC1)N(CCN1CCN(c2ccccc2OC(F)(F)F)CC1)c1ccccn1 [Ex. 1, 1-[N-cyclohexylcarbonyl-N-(2-pyridyl)-2-aminoethyl]-4-(2-trifluoromethoxyphenyl)piperazine]
- Bladder Quiescence (disappearance time of contractions) ([2]; 100 μg/kg i.v.): 5.85 ± 1.87 min
- Bladder Quiescence (disappearance time of contractions) ([2]; 1000 μg/kg i.v.): 16.25 ± 1.38 min
- Bladder Quiescence (disappearance time of contractions) ([2]; 3000 μg/kg i.v.): 18.40 ± 4.12 min
- Ki [1]: 860 pM

Structure (SMILES): COc1cc(N)ccc1N1CCN(CCN(C(=O)C2CCCCC2)c2ccccn2)CC1 [Ex. 6, 1-[N-cyclohexylcarbonyl-N-(2-pyridyl)-2-aminoethyl]-4-(4-amino-2-methoxyphenyl)piperazine]
- Bladder Quiescence (disappearance time of contractions) ([2]; 10 μg/kg i.v.): 6.75 ± 1.66 min
- Bladder Quiescence (disappearance time of contractions) ([2]; 100 μg/kg i.v.): 9.82 ± 1.18 min
- Bladder Quiescence (disappearance time of contractions) ([2]; 1000 μg/kg i.v.): 15.00 ± 3.11 min
- Ki [1]: 14300 pM

Structure (SMILES): COc1cc(NC(C)=O)ccc1N1CCN(CCN(C(=O)C2CCCCC2)c2ccccn2)CC1 [Ex. 7, 1-[N-cyclohexylcarbonyl-N-(2-pyridyl)-2-aminoethyl]-4-(4-acetylamino-2-methoxyphenyl)piperazine]
- Bladder Quiescence (disappearance time of contractions) ([2]; 100 μg/kg i.v.): 7.97 ± 1.78 min
- Bladder Quiescence (disappearance time of contractions) ([2]; 300 μg/kg i.v.): 8.65 ± 1.81 min
- Bladder Quiescence (disappearance time of contractions) ([2]; 1000 μg/kg i.v.): 20.63 ± 3.31 min
- Ki [1]: 8150 pM

Structure (SMILES): Cc1c(-c2ccccc2)oc2c(C(=O)OCCN3CCCCC3)cccc2c1=O [Flavoxate, reference compound]
- Bladder Quiescence (disappearance time of contractions) ([2]; 1000 μg/kg i.v.): 3.04 ± 0.96 min
- Bladder Quiescence (disappearance time of contractions) ([2]; 3000 μg/kg i.v.): 5.30 ± 1.00 min
- Bladder Quiescence (disappearance time of contractions) ([2]; 10000 μg/kg i.v.): 8.25 ± 1.90 min

Structure (SMILES): CCN(CC)CC#CCOC(=O)C(O)(c1ccccc1)C1CCCCC1 (centres unmarked) [Oxybutynin, reference compound]
- Bladder Quiescence (disappearance time of contractions) ([2]; 100 μg/kg i.v.): 0.92 ± 0.15 min
- Bladder Quiescence (disappearance time of contractions) ([2]; 300 μg/kg i.v.): 2.87 ± 1.12 min
- Bladder Quiescence (disappearance time of contractions) ([2]; 1000 μg/kg i.v.): 2.80 ± 0.60 min
- Bladder Quiescence (disappearance time of contractions) ([2]; 3000 μg/kg i.v.): 6.27 ± 2.90 min
- ED50 ([2]; Rattus norvegicus, iv, read-out: ED50 value (extrapolated dose inducing a 30% reduction of amplitude of the contractions in 50% of treated rats)): 240 mg/kg
- Duration of bladder quiescence / cessation of bladder contractions (in words) [2, 4]: does not cause cessation of bladder contractions
- Effect on amplitude of bladder contractions (in words) [2, 4]: only decreased the amplitude of the contractions in a dose-related manner
- Effect on bladder voiding contractions in this model system (background, in words) [3]: lower the amplitude of the bladder contractions

Structure (SMILES): O=C(C1CCCCC1)N(CCN1CCN(c2cc(Cl)ccc2OCC(F)(F)F)CC1)c1ccccn1 [Ex. 3, 1-[N-cyclohexylcarbonyl-N-(2-pyridyl)-2-aminoethyl]-4-[5-chloro-2-(2,2,2-trifluoroethoxy)phenyl]piperazine]
- Bladder Quiescence (disappearance time of contractions) ([2]; 10 μg/kg i.v.): 3.15 ± 1.74 min
- Bladder Quiescence (disappearance time of contractions) ([2]; 100 μg/kg i.v.): 6.15 ± 1.19 min
- Bladder Quiescence (disappearance time of contractions) ([2]; 1000 μg/kg i.v.): 10.13 ± 0.59 min
- Bladder Quiescence (disappearance time of contractions) ([2]; 3000 μg/kg i.v.): 14.42 ± 2.36 min
- Ki [1]: 1510 pM

Structure (SMILES): O=C(C1CCCCC1)N(CCN1CCN(c2cc(Cl)ccc2Cl)CC1)c1ccccn1 [Ex. 10, 1-[N-cyclohexylcarbonyl-N-(2-pyridyl)-2-aminoethyl]-4-(2,5-dichlorophenyl)piperazine]
- Ki [1]: 450 pM
